Data as given in US10231463B2, “Food mass suitable for microwaving” (Chemische Fabrik Budenheim KG, priority 2013, dated 2019).

Key:
[1] = Pore volume by nitrogen gas adsorption (BJH method, BELSORP-mini II); assay type: physicochemical; details: total pore volume Vp, nitrogen adsorption at 77.3 K
Source text: Determining the Pore Volume
The pore volume in accordance with the present invention is characterised by means of gas adsorption. The recording of physisorption isotherms (adsorption and desorption isotherms) of inert gas molecules at low temperatures is routinely used for determining solids parameters.
The BJH method provides an algorithm for the calculation of pore width distribution from nitrogen adsorption data on the assumption of a cylindrical pore geometry. In that respect consideration is given to the change in the adsorbed volume in the pores in dependence on the pore radius, wherein the pore radius distribution function is related as a relative value to the total pore volume. […] It is assumed that the entire pore system is filled with a capillary condensate.

[2] = Thawing and baking trials with yeast-raised wheat frozen doughs in a microwave oven; details: yeast-raised wheat frozen dough; for ΔT (temperature difference between crust temperature and crumb temperature): 2 parts by weight additive, 600 watts, 120 seconds; for Microwave activity: assessment scale from ΔT
Procedure: Dough Composition (Basic Recipe):
In addition 2 parts by weight of microwave absorber were added to the basic recipe.
• Mixing and kneading time: 3+2 minutes (the latter in a Stephan mixer) • Dough standing time: 20 minutes • Dough piece weight: 200 g • Cooking time of the dough pieces: 20 minutes • Freezing time: about 4 hours • Deep freeze storage time: about 2 days Thawing and Baking Trials:
The deep-frozen dough pieces were exposed to microwave radiation in a microwave oven from Panasonic (model: NN-GD560M—inverter microwave) for a predetermined period of 120 seconds and with a predetermined microwave power of 600 watts (according to the device indication). After 2 minutes of standing time the temperature of the crust and the crumb was measured by means of an infrared temperature sensor at various measurement points on the dough piece.
Measurement value 1 (M1)=average crust temperature outside
Measurement value 2 (M2)=average crumb temperature in the interior of the dough piece.

[3] = Baking trials with ready-to-eat baking mixture (lemon cake) in a microwave oven; details: for ΔT (temperature difference between crust temperature and crumb temperature): 2 parts by weight additive, 600 watts, 140 seconds; for Microwave activity: assessment scale from ΔT
Procedure: A ready-to-eat baking mixture for lemon cakes from […] was used as the basic recipe. […] Whole egg and sugar were put into a mixing container and mixed. The powder mixture of the composition (wheat flour, cooking salt and so forth) was slowly mixed in. Vegetable oil, flavouring substances and alcohol were then slowly added and mixing was effected for 12 minutes. After that baking raising agent was added and mixed at a medium stage for a further 2 minutes. After that the microwave absorber was mixed in, the mixer was switched off, and the material was tipped out and stored cool.

[4] = Thawing and baking trials with puff pastry in a microwave oven; details: for ΔT (temperature difference between crust temperature and crumb temperature): 2 parts by weight additive, puff pastry dough pieces; for Microwave activity: assessment scale from ΔT, puff pastry doughs
Procedure: A puff pastry from Veripan was used as the basic recipe.
2 parts by weight of microwave absorber were further added to the basic recipe.
Wheat flour, inverted sugar, emulsifier and optionally microwave absorber were put into a mixing container and mixed. The water and 20% of the vegetable fat were added and kneaded for 3 minutes at a low stage and for 5 minutes at a medium stage with a spiral kneader. The dough temperature was monitored. The target temperature was 18° C. After that the remaining vegetable fat was beaten into the dough. The dough was then folded at intervals each of 30 minutes in 4 working steps, more specifically 2 single and 2 double turns. They give by calculation 144 fat layers (margarine), divided into very thin dough and fat layers. Before processing the dough was stored in a cooled condition for 12 hours.
Unbaked puff pastry dough roundels without filling and pre-baked puff pastry dough pockets (hot pockets) with a tomato sauce filling were respectively subjected to microwave radiation as deep-frozen dough pieces in a microwave oven from Panasonic (see Example 2) for a predetermined period and with a predetermined microwave power. After a […] standing time the temperature of the dough piece was measured by means of a thermal imaging camera (Fluke Ti20) and evaluated.
Measurement value 1 (M1)=averaged crust temperature outside
Measurement value 2 (M2)=averaged crumb temperature in the interior of the dough piece.
Puff pastry dough roundel (PPD-RO): 440 watts; 200 seconds
Puff pastry dough hot pockets (PPD-HP): 600 watts; 300 seconds
Table 3 hereinafter reproduces the additives used, the temperature measurement values M1 and M2 and the corresponding temperature difference (ΔT) between crust temperature and crumb temperature of the dough piece.
Assessment of Microwave Activity in Puff Pastry Doughs 1: ΔT=>20° C.=very good 2: ΔT=15 to <20° C.=good 3: ΔT=<15° C.=no additional additive

[5] = Solubility of the additive in water at 20° C.; assay type: physicochemical

Molecule	Pore Volume [1]	ΔT (temperature difference between crust temperature and crumb temperature) [2]	Microwave activity [2]	ΔT (temperature difference between crust temperature and crumb temperature) [3]	Microwave activity [3]	ΔT (temperature difference between crust temperature and crumb temperature) [4]	Microwave activity [4]	Solubility [5]
[Mg+2].[OH-].[OH-] [Mg(OH)2, Magnesium hydroxide]	18.2 10^−3 cm^3/g	62.5 °C	1 (ΔT=>40° C.=very good)	–	–	–	–	–
O=P([O-])([O-])[O-].O=P([O-])([O-])[O-].[Ca+2].[Ca+2].[Ca+2] [TCP, Tricalcium phosphate]	120 10^−3 cm^3/g	36.2 °C	2 (ΔT=25 to 40° C.=good)	–	–	–	–	–
O=P([O-])([O-])OP(=O)([O-])[O-].O=P([O-])([O-])OP(=O)([O-])[O-].O=P([O-])([O-])OP(=O)([O-])[O-].[Fe+3].[Fe+3].[Fe+3].[Fe+3] [FePP, Iron-III-pyrophosphate]	30 10^−3 cm^3/g	42.6 °C	1 (ΔT=>40° C.=very good)	26.4 °C	1 (ΔT=>20° C.=very good)	16.9 °C	2 (ΔT=15 to <20° C.=good)	–
O=P([O-])([O-])[O-].[Fe+3] [FeOP, Iron-III-orthophosphate]	19 10^−3 cm^3/g	47.0 °C	1 (ΔT=>40° C.=very good)	15.9 °C	2 (ΔT=15 to <20° C.=good)	15.1 °C	2 (ΔT=15 to <20° C.=good)	–
O=S(=O)([O-])[O-].O=S(=O)([O-])[O-].[Al+3].[Na+] [SAS, Acid sodium aluminium sulphate]	3.9 10^−3 cm^3/g	39.6 °C	2 (ΔT=25 to 40° C.=good)	–	–	–	–	–
O.O.O=P([O-])([O-])O.[Ca+2] [DCPD, Dicalcium phosphate dihydrate]	5.3 10^−3 cm^3/g	26.2 °C	2 (ΔT=25 to 40° C.=good)	–	–	–	–	–
Ammonium molybdate [AmMD(V), reference compound]	2.6 10^−3 cm^3/g	24.2 °C	3 (ΔT=<25° C.=no additional activity)	–	–	–	–	–
O=P(O)(O)OP(=O)(O)OP(=O)(O)O [STPP(V), Sodium tripolyphosphate, reference compound]	1.1 10^−3 cm^3/g	12.6 °C	3 (ΔT=<25° C.=no additional activity)	–	–	–	–	145 mg/mL
O=P([O-])([O-])OP(=O)([O-])[O-].[Na+].[Na+].[Na+].[Na+] [TSPP, Tetrasodium pyrophosphate]	3.3 10^−3 cm^3/g	40.8 °C	1 (ΔT=>40° C.=very good)	–	–	–	–	–
Sodium aluminium phosphate 3:2:8 Na3H15Al2*PO4)8 [SALP 2]	6.4 10^−3 cm^3/g	20.5 °C	2 (ΔT=25 to 40° C.=good)	–	–	–	–	15 mg/mL
O=P([O-])([O-])OP(=O)([O-])[O-].[Cu+2].[Cu+2] [CuPP, Copper-II pyrophosphate]	12 10^−3 cm^3/g	37.9 °C	2 (ΔT=25 to 40° C.=good)	–	–	–	–	–
O=P([O-])(O)OP(=O)([O-])O.[Ca+2] [CAPP, Acid calcium pyrophosphate]	3.6 10^−3 cm^3/g	50.0 °C	1 (ΔT=>40° C.=very good)	21.2 °C	1 (ΔT=>20° C.=very good)	26.1 °C	1 (ΔT=>20° C.=very good)	–
O=P([O-])([O-])OP(=O)([O-])[O-].[Mg+2].[Mg+2] [MgPP, Magnesium pyrophosphate]	7.1 10^−3 cm^3/g	45.8 °C	1 (ΔT=>40° C.=very good)	19.1 °C	2 (ΔT=15 to <20° C.=good)	15.2 °C	2 (ΔT=15 to <20° C.=good)	–
[Cl-].[Cl-].[Mg+2] [MgCl2(V), Magnesium chloride, reference compound]	2.0 10^−3 cm^3/g	19.8 °C	3 (ΔT=<25° C.=no additional activity)	–	–	–	–	–
O=P([O-])(O)O.O=P([O-])(O)O.[Mg+2] [MSPA, Monomagnesium phosphate anhydrate]	4.5 10^−3 cm^3/g	41.1 °C	1 (ΔT=>40° C.=very good)	–	–	–	–	–
O=P([O-])([O-])OP(=O)([O-])[O-].[Zn+2].[Zn+2] [ZPP, Zinc pyrophosphate]	10.5 10^−3 cm^3/g	37.9 °C	2 (ΔT=25 to 40° C.=good)	–	–	–	–	–
O.O.O=P([O-])([O-])[O-].O=P([O-])([O-])[O-].[Zn+2].[Zn+2].[Zn+2] [TZP, Trizinc phosphate dihydrate]	6.3 10^−3 cm^3/g	38.0 °C	2 (ΔT=25 to 40° C.=good)	–	–	–	–	–
O=P([O-])(O)O.O=P([O-])(O)O.[Ca+2] [MCPA(V), Monocalcium phosphate anhydrate, reference compound]	2.3 10^−3 cm^3/g	17.0 °C	3 (ΔT=<25° C.=no additional activity)	–	–	–	–	–
O.O=P([O-])(O)O.O=P([O-])(O)O.[Ca+2] [MCPM, Monocalcium phosphate monohydrate]	23 10^−3 cm^3/g	32.5 °C	2 (ΔT=25 to 40° C.=good)	–	–	–	–	–
O=C([O-])[O-].[Ca+2] [CaCO3, Calcium carbonate]	9.0 10^−3 cm^3/g	31.5 °C	2 (ΔT=25 to 40° C.=good)	–	–	–	–	–
O=C([O-])CC(O)(CC(=O)[O-])C(=O)[O-].O=C([O-])CC(O)(CC(=O)[O-])C(=O)[O-].[Ca+2].[Ca+2].[Ca+2] [TCC, Tricalcium citrate]	14.2 10^−3 cm^3/g	28.6 °C	2 (ΔT=25 to 40° C.=good)	–	–	–	–	–
O.O.O.O.O=P([O-])([O-])[O-].O=P([O-])([O-])[O-].[Mg+2].[Mg+2].[Mg+2] [TMP, Trimagnesium phosphate tetrahydrate]	16 10^−3 cm^3/g	41.0 °C	1 (ΔT=>40° C.=very good)	–	–	–	–	–
O.O.O.O=P([O-])([O-])O.[Mg+2] [DMP, Dimagnesium phosphate trihydrate]	6.0 10^−3 cm^3/g	41.9 °C	1 (ΔT=>40° C.=very good)	–	–	–	–	–
Calcium gluconate [CaGl]	10.0 10^−3 cm^3/g	36.6 °C	2 (ΔT=25 to 40° C.=good)	–	–	–	–	–
